Test results published in US11351178B2, “Selective HDAC6 inhibitors” (ITALFARMACO S.P.A., priority 2017, dated 2022).

Experiments:
[1] = Stability in human plasma; assay type: in vitro ADME; conditions: after 4 hours, 37° C.
Protocol: In order to evaluate the stability to circulating enzymes, test compounds were incubated in human and rat plasma at 37° C. in a thermostated oscillating bath. Each test compound was incubated at μM (50 μM when the samples were analysed by UV/HPLC, 1 or 2 μM when the samples were analysed by LC-MS/MS) concentration for 0, 15, 30 min and 1, 2 and 4 hours. The reaction was stopped placing tubes on ice bath and adding acidified acetonitrile. After centrifugation for 10 minutes at 14000 rpm, an aliquot of the supernatant was diluted with water, filtered with 0.45 μm syringe filters and injected in HPLC-UV or in LC-MS/MS. The percentages of amount remaining at the various times of incubation with respect to initial amount were calculated. The half-life in plasma was also calculated.

recombinant human HDAC6 = biological target: T1, recombinant human HDAC6 (Homo sapiens, UniProt Q9UBN7); experiment: Enzymatic screening on recombinant human HDAC6; assay type: biochemical; conditions: Table 2; read-out: HDAC6 IC50
T1 sequence (Q9UBN7 1-1215): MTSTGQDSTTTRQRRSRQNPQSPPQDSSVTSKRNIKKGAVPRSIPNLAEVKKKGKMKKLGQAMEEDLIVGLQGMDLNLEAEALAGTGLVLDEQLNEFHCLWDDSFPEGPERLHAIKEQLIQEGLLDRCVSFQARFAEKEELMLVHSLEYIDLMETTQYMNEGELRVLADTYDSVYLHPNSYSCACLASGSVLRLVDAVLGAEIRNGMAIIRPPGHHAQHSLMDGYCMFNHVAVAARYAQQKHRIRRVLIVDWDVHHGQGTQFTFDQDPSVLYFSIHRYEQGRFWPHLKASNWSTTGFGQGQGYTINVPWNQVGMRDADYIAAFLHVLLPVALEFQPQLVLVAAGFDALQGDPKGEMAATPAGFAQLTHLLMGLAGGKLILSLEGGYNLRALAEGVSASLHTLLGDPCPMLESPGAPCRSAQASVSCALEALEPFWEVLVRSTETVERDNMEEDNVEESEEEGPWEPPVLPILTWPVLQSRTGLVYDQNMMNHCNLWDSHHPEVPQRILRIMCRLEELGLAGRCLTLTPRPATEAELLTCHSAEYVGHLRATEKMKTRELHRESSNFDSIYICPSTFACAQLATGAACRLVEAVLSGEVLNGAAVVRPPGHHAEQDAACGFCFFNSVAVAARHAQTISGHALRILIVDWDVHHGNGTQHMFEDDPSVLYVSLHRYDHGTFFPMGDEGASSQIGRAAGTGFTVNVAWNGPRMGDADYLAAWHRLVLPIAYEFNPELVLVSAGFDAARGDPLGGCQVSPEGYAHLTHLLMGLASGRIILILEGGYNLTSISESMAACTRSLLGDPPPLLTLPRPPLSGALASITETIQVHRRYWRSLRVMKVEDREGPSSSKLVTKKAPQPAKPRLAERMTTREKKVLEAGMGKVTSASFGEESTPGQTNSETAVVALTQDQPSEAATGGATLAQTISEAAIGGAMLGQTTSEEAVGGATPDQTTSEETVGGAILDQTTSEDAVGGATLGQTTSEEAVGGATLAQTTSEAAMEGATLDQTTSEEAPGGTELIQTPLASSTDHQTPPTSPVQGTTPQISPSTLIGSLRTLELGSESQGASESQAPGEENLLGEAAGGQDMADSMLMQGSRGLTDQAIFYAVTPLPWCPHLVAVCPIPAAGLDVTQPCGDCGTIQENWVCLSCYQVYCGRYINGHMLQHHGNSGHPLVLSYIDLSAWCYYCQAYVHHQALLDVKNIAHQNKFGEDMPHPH
How it was run: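 Deacetylase activity of recombinant human isoforms is measured with FLUOR DE LYS, FLUOR DE LYS-Green or trifluoroacetyl-L-lysine substrates, supplied at 2× in 25 mM Tris-HCl, pH 8, 130 mM NaCl, 0.05% Tween-20, 10% glycerol. Both the enzyme-compound preincubation, of isoform-specific length, and the substrate reaction run at 30 °C.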

Stability in rat plasma = assay type: in vitro ADME; conditions: after 4 hours, 37° C.
How it was run: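 Compounds incubated at 37° C in rat or human plasma at 50 μM (UV/HPLC) or 1 or 2 μM (LC-MS/MS) for 0–4 h. Reaction stopped with acidified acetonitrile on ice; percent remaining versus initial amount and plasma half-life calculated.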

[2] = Stability to Phase I metabolism in human S9 liver fraction; assay type: in vitro ADME
Protocol: Test compounds were incubated in rat and human liver S9 fraction at 37° C. up to 90 minutes in order to evaluate their stability to Phase I metabolism by hepatic enzymes. […] The reaction was stopped placing samples on ice bath and adding acidified acetonitrile. After centrifugation (10 minutes at 14000 rpm) an aliquot of the supernatant was diluted water, filtered with 0.45 μm regenerated cellulose syringe filters and injected in HPLC-UV or in LC-MS/MS. The percentages of the amount remaining at the various incubation times with respect to the initial amount were calculated. The intrinsic clearance was also calculated.

[3] = Stability to Phase I metabolism in rat S9 liver fraction; assay type: in vitro ADME; conditions: after 90 min, 37° C.
How it was run: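 Compounds were incubated with rat or human liver S9 fraction at 37 °C for up to 90 min. Reactions were quenched on ice with acidified acetonitrile and analysed by HPLC-UV or LC-MS/MS. Percent remaining versus time zero and intrinsic clearance were calculated.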

[4] = test system: B 697 promyelocytic cell line; experiment: Cytotoxicity on 697 cell line (CellTiter 96); assay type: cell-based; conditions: 72 hours incubation, read-out: 697 TOXICITY
How it was run: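 Cells seeded (2×10^4/well for 697, 5×10^5/well for PBMCs); compounds added after 24 h at 1–10000 nM (697) or 1.5–10000 nM (PBMCs) and incubated 72 h. Viability read by CellTiter 96 Aqueous One tetrazolium assay of mitochondrial function.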

[5] = test system: peripheral blood mononuclear cells (PBMCs); experiment: Cytotoxicity on PBMCs (CellTiter 96); assay type: cell-based; conditions: PBMC, 72 h; read-out: PBMC TOXICITY (72 h)
Protocol: Cytotoxic activity was evaluated on B 697 […] cell line for all synthesized compounds and on peripheral blood mononuclear cells (PBMCs) for compounds showing a good potency/selectivity profile.
Cells were seeded in plate (2×10^4 cells per well for 697, 5×10^5 cells per well for PBMCs). The test compounds (concentrations from 1.5 nM to 10000 nM for PBMCs and from 1 nM to 10000 nM for 697) were added after 24 hours and incubated 72 hours. The molecules cytotoxic activity was evaluated using CellTiter 96© Aqueous One Solution Cell Proliferation Assay (Promega), which measures the mitochondria function, following the manufacturer's instructions.

Compound | residual percentage in human plasma [1] [%] | IC50 (recombinant human HDAC6) [nM] | residual percentage in rat plasma (Stability in rat plasma) [%] | residual percentage in human S9 fraction ([2]; human, 90 min, pH 7.4) [%] | residual percentage in rat S9 fraction [3] [%] | IC50 [4] [nM] | IC50 [5] [nM] | residual percentage in human S9 fraction ([2]; human liver S9 fraction, after 90 min, 37° C.) [%]
CN(C)Cc1ccc(-c2nnc(Sc3c(F)cc(C(=O)NO)cc3F)n2C)o1 [comp. 206, 4-[[5-[5-[(dimethylamino)methyl]-2-furyl]-4-methyl-1,2,4-triazol-3-yl]sulfanyl]-3,5-difluoro-benzenecarbohydroxamic acid] | 92 | 7 | 88 | 97 | 50 | – | – | –
O=C(NO)c1cc(F)c(Sc2nnc(-c3cncc(Br)c3)s2)c(F)c1 [compound 196, 4-[[5-(5-bromo-3-pyridyl)-1,3,4-thiadiazol-2-yl]sulfanyl]-3,5-difluoro-benzenecarbohydroxamic acid] | 89 | 53 | 99 | 26 | 23 | – | – | –
CCN(CC)Cc1ccc(-c2nnc(Sc3c(F)cc(C(=O)NO)cc3F)n2C)o1 [comp. 211, 4-[[5-[5-(diethylaminomethyl)-2-furyl]-4-methyl-1,2,4-triazol-3-yl]sulfanyl]-3,5-difluoro-benzenecarbohydroxamic acid] | 76 | 8 | 86 | 59 | 67 | – | – | –
Cn1c(Sc2c(F)cc(C(=O)NO)cc2F)nnc1-c1ccco1 [comp. 199, 3,5-difluoro-4-[[5-(2-furyl)-4-methyl-1,2,4-triazol-3-yl]sulfanyl]benzenecarbohydroxamic acid] | 90 | 6 | 92 | 75 | 57 | – | – | –
O=C(NO)c1ccc(Sc2nnc(-c3ccccc3)o2)cc1 [comp. 188, 4-[(5-phenyl-1,3,4-oxadiazol-2-yl)sulfanyl]benzenecarbohydroxamic acid] | 90 | 7 | 93 | 49 | 7 | – | – | –
O=C(NO)c1cc(F)c(Cc2nnc(-c3cncc(N4CCOCC4)c3)s2)c(F)c1 [compound 197, 3,5-difluoro-4-[[5-(5-morpholino-3-pyridyl)-1,3,4-thiadiazol-2-yl]methyl]benzenecarbohydroxamic acid] | 96 | 10 | 82 | 86 | 62 | – | – | –
O=C(NO)c1cc(F)c(Cc2noc(-c3ccccc3)n2)c(F)c1 [compound 194, 3,5-difluoro-N-hydroxy-4-((5-phenyl-1,2,4-oxadiazol-3-yl)methyl)benzamide] | 99 | 11 | 89 | 29 | 3 | – | – | –
Nc1ccc(-c2nnn(Cc3ccc(C(=O)NO)cc3)n2)cc1 [comp. 169, 4-[[5-(4-aminophenyl)tetrazol-2-yl]methyl]benzenecarbohydroxamic acid] | – | 1 | 68 | – | 44 | 271 | 24 | –
O=C(NO)c1cc(F)c(Cc2nnc(-c3ccccc3)s2)c(F)c1 [compound 198, 3,5-difluoro-N-hydroxy-4-((5-phenyl-1,3,4-thiadiazol-2-yl)methyl)benzamide] | 95 | 5 | 63 | 51 | 6 | – | – | –
O=C(NO)c1cc(F)c(Sc2nnc(-c3cccnc3)s2)c(F)c1 [comp. 191, 3,5-difluoro-N-hydroxy-4-((5-(pyridin-3-yl)-1,3,4-thiadiazol-2-yl)thio)benzamide] | 93 | 22 | 92 | 42 | 35 | – | – | –
COCCN(CCOC)c1cncc(-c2nc(Cc3c(F)cc(C(=O)NO)cc3F)no2)c1 [compound 200, 4-[[5-[5-[bis(2-methoxyethyl)amino]-3-pyridyl]-1,2,4-oxadiazol-3-yl]methyl]-3,5-difluoro-benzenecarbohydroxamic acid] | 102 | 8 | 96 | 37 | 32 | – | – | –
O=C(NO)c1cc(F)c(Cc2noc(-c3cncc(N4CC5(COC5)C4)c3)n2)c(F)c1 [compound 201, 3,5-difluoro-4-[[5-[5-(2-oxa-6-azaspiro[3.3]heptan-6-yl)-3-pyridyl]-1,2,4-oxadiazol-3-yl]methyl]benzenecarbohydroxamic acid] | 88 | 16 | 95 | – | 34 | – | – | 75
O=C(NO)c1cc(F)c(Sc2nnc(-c3ccccc3)o2)c(F)c1 [comp. 192, 3,5-difluoro-4-[(5-phenyl-1,3,4-oxadiazol-2-yl)sulfanyl]benzenecarbohydroxamic acid] | 100 | 31 | 90 | 43 | 17 | – | – | –
Cc1nc(N2CCOCC2)sc1-c1nnc(Cc2ccc(C(=O)NO)cc2)o1 [comp. 75, 4-[[5-(4-methyl-2-morpholino-thiazol-5-yl)-1,3,4-oxadiazol-2-yl]methyl]benzenecarbohydroxamic acid] | – | 4 | 116 | – | 75 | 1200 | 514 | –
